pIC50: −log10 of the molar value. Bridge positions count the residues as written; N and C are the ends. Peptide text beside a SMILES is read from it.
Biological target: hSK2A^+ (Homo sapiens, UniProt Q9H2S1, DUP58-58)
Assay: Membrane potential sensitive dye fluorescence assay (FLIPR384) in tsA201 cells stably expressing SK2
Type: cell-based
Settings: for effect on the fluorescence signals (responses to ATP/Tg and Cs+): 10 minutes incubation; for Hill coefficient (nH): inhibition of ATP/Tg induced decrease in fluorescence, FIG. 9
Experimental: These cells were plated in a black optical bottom 384 well assay plate at a density of 8×10^6 cells/plate. […] After a 30-minute incubation in the voltage sensitive dye, the cell plate was transferred to a fluorescence plate reader (FLIPR384™, Molecular Devices), and ten baseline fluorescence readings were obtained.
Intracellular Ca^2+ levels of the cells were raised by addition of ATP (200 μM final concentration) and thapsigargin (1 μM final concentration). […] In FIG. 8, time is represented in seconds on the X-axis, and fluorescence is represented in au on the Y-axis. ATP/Tg addition is indicated at time 1, and CsCl addition is indicated at time II.
The magnitude of the ATP/Tg induced decrease in fluorescence was measured in the presence of each of a panel of known SK2 inhibitors. […]

Chain of hSK2A^+ (Q9H2S1 with tags, fused parts or gaps DUP58-58): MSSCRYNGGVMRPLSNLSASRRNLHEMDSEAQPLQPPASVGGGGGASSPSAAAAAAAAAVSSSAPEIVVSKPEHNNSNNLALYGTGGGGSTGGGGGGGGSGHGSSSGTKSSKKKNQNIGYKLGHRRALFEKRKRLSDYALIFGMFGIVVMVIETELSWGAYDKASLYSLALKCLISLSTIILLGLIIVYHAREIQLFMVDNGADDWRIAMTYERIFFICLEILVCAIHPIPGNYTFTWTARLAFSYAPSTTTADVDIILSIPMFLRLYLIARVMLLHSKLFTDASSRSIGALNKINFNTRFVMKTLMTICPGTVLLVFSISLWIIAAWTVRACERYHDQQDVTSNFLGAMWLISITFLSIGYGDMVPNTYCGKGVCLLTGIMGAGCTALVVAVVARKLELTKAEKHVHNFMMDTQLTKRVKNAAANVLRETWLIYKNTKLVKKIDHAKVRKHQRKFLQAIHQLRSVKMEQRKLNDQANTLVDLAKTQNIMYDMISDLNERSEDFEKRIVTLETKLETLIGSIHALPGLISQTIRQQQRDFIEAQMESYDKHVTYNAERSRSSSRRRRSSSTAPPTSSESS

| Molecule | effect on the fluorescence signals (responses to ATP/Tg and Cs+) (tested at 833 nM) | Hill coefficient (nH) | further results |
| --- | --- | --- | --- |
| noxiustoxin (TIINVKCTSPKQCSKPCKELYGSSAGAKCMNGKCKCYNN) | no effect |  |  |
| iberiotoxin (QFTDVDCSVSKECWSVCKDLFGVDRGKCMGKKCRCYQ) [toxin isolated from Mesobuthus tamulus] | no effect |  |  |
| α-dendrotoxin (QPRRKLCILHRNPGRCYDKIPAFYYNQKKKQCERFDWSGCGGNSNRFKTIEECRRTCIG) | no effect |  |  |
| O=c1[nH]c2cc(C(F)(F)F)ccc2n1-c1cc(C(F)(F)F)ccc1O [NS1619] |  | 2 |  |
| CC[C@H](C)[C@@H]1NC(=O)[C@@H]2CSSC[C@H](NC(=O)[C@H](Cc3ccccc3)NC(=O)[C@H](C)N)C(=O)N[C@@H](CC(N)=O)C(=O)N[C@@H](CC(C)C)C(=O)N[C@@H](CCCNC(=N)N)C(=O)N[C@@H](CCSC)C(=O)N[C@H]3CSSC[C@H](NC(=O)[C@H](CCCCN)NC(=O)[C@H](CC(=O)O)NC(=O)CNC1=O)C(=O)N[C@@H](CCC(=O)O)C(=O)N[C@H](C(=O)N[C@H](C(=O)N[C@@H](CCCCN)C(=O)N[C@@H](Cc1c[nH]cn1)C(N)=O)C(C)C)CSSC[C@H](NC(=O)[C@H](CO)NC(=O)[C@H](CC(C)C)NC(=O)[C@H](CCC(N)=O)NC3=O)C(=O)N[C@@H](CCCNC(=N)N)C(=O)N[C@@H](CO)C(=O)N[C@@H](CC(C)C)C(=O)NCC(=O)N[C@@H](CC(C)C)C(=O)N[C@@H](CC(C)C)C(=O)NCC(=O)N[C@@H](CCCCN)C(=O)N2 [scyllatoxin] (H-AFCNLRMCQLSCRSLGLLGKCIGDKCECVKH-NH2; disulfide 3-21, 8-26, 12-28) |  |  | pIC50: 8.96 |
| C=C[C@H]1C[N@@]2CC[C@H]1C[C@@H]2[C@@H](O)c1ccnc2ccc(OC)cc12 [quinidine] |  | 0.6 |  |
| CC(N/C(=N\C#N)Nc1ccncc1)C(C)(C)C (centres unmarked) [pinacidil] |  |  | effect on the fluorescence signals (responses to ATP/Tg and Cs+) (tested at 286 μM): no effect |
| C[N+]1(C)CCc2cc3c(cc2[C@H]1[C@@H]1OC(=O)c2c1ccc1c2OCO1)OCO3.[Br-] [bicuculline methobromide] |  | 1 |  |
